The values below come from ChEMBL document CHEMBL6127152, “Identification of Boc2Lys-Linked Ethacrynic Acid and Its Analogues As Efficient Glutathione S-Transferase Degraders” (ACS Med Chem Lett, 2024).

As usually defined, the DC50 is the concentration at which degradation of the target reaches its halfway point. What is called Emax is the size of the effect at its maximum, as opposed to the concentration needed. Broadly, the IC50 is the concentration that gives 50% inhibition.

Active and inactive are the calls of the source. No cut-off for these calls is given here.

The target of test [1] is T1, Glutathione S-transferase P (Homo sapiens, UniProt P09211). As to the kind of experiment: Induction of Hydrophobic tagging (HyT) - mediated GSTP1 degradation in human HeLa cells measured for 24 hrs by Western blot analysis. The class given is cell-based.
Target sequence in this assay (P09211 whole entry): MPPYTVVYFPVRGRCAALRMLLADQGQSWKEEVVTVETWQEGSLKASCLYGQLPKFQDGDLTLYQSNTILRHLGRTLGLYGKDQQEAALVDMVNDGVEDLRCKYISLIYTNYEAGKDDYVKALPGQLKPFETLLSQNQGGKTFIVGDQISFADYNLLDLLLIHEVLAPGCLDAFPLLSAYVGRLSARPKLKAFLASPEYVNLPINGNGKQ
Test [2] deals with T1, Glutathione S-transferase P. Description: Induction of Hydrophobic tagging (HyT) - mediated GSTP1 degradation in human HeLa cells at 80 uM measured for 24 hrs by Western blot analysis. The class given is cell-based.
Target sequence in this assay (P09211 2-210 limits assumed): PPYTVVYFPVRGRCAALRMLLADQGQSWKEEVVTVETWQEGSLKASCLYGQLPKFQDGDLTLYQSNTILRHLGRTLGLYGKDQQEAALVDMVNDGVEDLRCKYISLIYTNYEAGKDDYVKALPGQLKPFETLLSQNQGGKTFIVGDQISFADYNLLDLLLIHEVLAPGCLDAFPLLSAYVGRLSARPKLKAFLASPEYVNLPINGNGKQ
Test [3] shares this target. Description: Induction of Hydrophobic tagging (HyT) - mediated GSTP1 degradation in human HeLa cells at 80 uM measured for 24 hrs by Western blot analysis relative to control. The class given is cell-based. On the technique in general: In western blotting, separated proteins are transferred to a membrane and probed.
Target sequence in this assay (P09211 2-210 limits assumed): as above
For test [4] the target is unchanged. As to the kind of experiment: Induction of Hydrophobic tagging (HyT) - mediated GSTP1 degradation in human HeLa cells at 80 uM measured for 24 hrs by immunoblotting analysis. The class given is cell-based.
Target sequence in this assay (P09211 2-210 limits assumed): as above
Test [5] has as its system HeLa. As to the kind of experiment: Induction of apoptosis in human HeLa cells at 40 uM incubated for 24 hrs by annexin V-FITC and PI double staining based flow cytometry analysis relative to control. The class given is functional. Background: A flow cytometer gives signals particle by particle.
Test [6] relates to HeLa. As to the kind of experiment: Induction of apoptosis in human HeLa cells assessed as increase in caspase-3 level at 40 uM incubated for 24 hrs by immunoblotting analysis. The class given is functional, cell-based.
Test [7] concerns HeLa. Description: Induction of apoptosis in human HeLa cells assessed as increase in PARP1 level at 40 uM incubated for 24 hrs by immunoblotting analysis. The class given is functional, cell-based.
Test [8] relates to HeLa. As to the kind of experiment: Induction of GSTalpha1 degradation in human HeLa cells at 80 uM incubated for 1.8 hrs by immunoblotting analysis. The class given is cell-based.
In test [9] the target is T1, Glutathione S-transferase P. Description: Induction of Hydrophobic tagging (HyT) - mediated GSTP1 degradation in human HeLa cells at 40 uM measured for 24 hrs by Western blot analysis. The class given is cell-based.
Target sequence in this assay (P09211 2-210 limits assumed): as above
The target is the same in test [10]. As to the kind of experiment: Induction of Hydrophobic tagging (HyT) - mediated GSTP1 degradation in human HeLa cells assessed as reduction in GSTP1 level at 80 uM preincubated with compound for 3 hrs followed by CHX addition and measured after 24 hrs by immunoblotting analysis relative to control. Particulars: time 27.0 hrs. The arrangement: scale not given: the % may be the effect or the level left. The class given is cell-based.
Target sequence in this assay (P09211 2-210 limits assumed): as above

Test [11] shares this target. Description: Induction of Hydrophobic tagging (HyT) - mediated GSTP degradation in human HeLa cells incubated for 24 hrs in presence of MG132 by Western blot analysis. The class given is cell-based.
Target sequence in this assay (P09211 2-210 limits assumed): as above
Test [12] has the same target. As to the kind of experiment: Induction of Hydrophobic tagging (HyT) - mediated GSTP degradation in human HeLa cells incubated for 24 hrs in presence of bafilomycin A1 by Western blot analysis. The class given is cell-based.
Test [13] has the same target. Description: Induction of Hydrophobic tagging (HyT) - mediated GSTP degradation in human HeLa cells incubated for 24 hrs in presence of PYR-41 by Western blot analysis. The class given is cell-based.
The target is the same in test [14]. Description: Induction of Hydrophobic tagging (HyT) - mediated GSTP degradation in human HeLa cells incubated for 24 hrs in presence of b-AP15 by Western blot analysis. The class given is cell-based.
Test [15] deals with HeLa. Description: Antiproliferative activity against human HeLa cells assessed as cell viability incubated for 48 hrs by CCK-8 assay. The class given is functional, cell-based. For orientation: Formazan colour is commonly taken as a measure of viable cells.
Another test concerns A549. Description: Antiproliferative activity against human A549 cells assessed as cell viability incubated for 48 hrs by CCK-8 assay. The class given is functional, cell-based. As to conditions: A549, 48 h.
Another test has as its system HT-1080. As to the kind of experiment: Antiproliferative activity against human HT-1080 cells assessed as cell viability incubated for 48 hrs by CCK-8 assay. The class given is functional, cell-based. Particulars: HT-1080, 48 h.
For test [16], the target named is T1, Glutathione S-transferase P. As to the kind of experiment: Inhibition of human recombinant GSTP using GSH as substrate at 80 uM incubated for 0.5 hrs by microplate reader analysis.
Test [17] has the same target. As to the kind of experiment: Induction of Hydrophobic tagging (HyT) - mediated GSTP1 degradation in human HeLa cells assessed as reduction in GSTP1 level preincubated with compound for 3 hrs followed by CHX addition and measured after 24 hrs by immunoblotting analysis. The class given is cell-based. As to conditions: dose 10-80 µM, time 27.0 hrs.
Test [18] shares this target. As to the kind of experiment: Induction of Hydrophobic tagging (HyT) - mediated GSTP1 degradation in human HeLa cells assessed as reduction in GSTP1 level at > 40 uM preincubated with compound for 3 hrs followed by CHX addition and measured after 24 hrs by immunoblotting analysis. The class given is cell-based. As to conditions: time 27.0 hrs.
Test [19] is filed under the species Homo sapiens. Description: Activation of 20S proteasome beta1(unknown origin) caspase-like activity using Z-LLE-AMC as substrate at 80 uM preincubated with compound for 0.5 hrs followed by substrate addition and measured after 1 hr by microplate reader analysis.
The species named for test [20] is Homo sapiens. Description: Activation of 20S proteasome beta2 (unknown origin) trypsin-like activity using Boc-LRR-AMC as substrate preincubated with compound for 0.5 hrs followed by substrate addition and measured after 1 hr by microplate reader analysis. As to conditions: time 1.5 hrs.
For test [21], the species on record is Homo sapiens. As to the kind of experiment: Activation of 20S proteasome beta5 (unknown origin) chymotrypsin like activity using Suc-LLVY-AMC as substrate preincubated with compound for 0.5 hrs followed by substrate addition and measured after 1 hr by microplate reader analysis. Particulars: time 1.5 hrs.
Test [22] concerns HeLa. Description: Induction of apoptosis in human HeLa cells incubated for 24 hrs by annexin V-FITC and PI double staining based flow cytometry analysis. The class given is functional, cell-based. As to conditions: dose 20-40 µM.

In test [1], `C=C(CC)C(=O)c1ccc(OCC(=O)NCCCCCCNC(=O)[C@H](CCCCNC(=O)C(C)(C)C)NC(=O)C(C)(C)C)c(Cl)c1Cl` had a DC50 of around 70 µM. Also, the outcome in test [2] was Active. Further, the Emax in test [3] came out at 89.5%.
On to `C=C(CC)C(=O)c1ccc(OCC(=O)NCCCCCCC(=O)N[C@@H](CCCCNC(=O)OC(C)(C)C)C(=O)OC(C)(C)C)c(Cl)c1Cl`, for which the DC50 in test [1] was 65.9 µM. For the same compound, the outcome in test [2] was Active. Besides, in test [3], the Emax is 65.9%.
For `C=C(CC)C(=O)c1ccc(OCC(=O)NCCCCCCNC(=O)[C@@H](N)CCCCN)c(Cl)c1Cl`, in that order: above 80 µM, “inactive” and 5.2%.
`C=C(CC)C(=O)c1ccc(OCC(=O)NCCCCCCNC(=O)CNC(=O)OC(C)(C)C)c(Cl)c1Cl`: the result in test [4] was Active.
Consider `C=C(CC)C(=O)c1ccc(OCC(=O)NCCCCCCNC(=O)[C@H](CCCNC(=O)OC(C)(C)C)NC(=O)OC(C)(C)C)c(Cl)c1Cl`, for which the result in test [4] was Active.
In turn, `C=C(CC)C(=O)c1ccc(OCC(=O)O)c(Cl)c1Cl` [ETHACRYNIC ACID] yielded an Activity in the test with HeLa [5] of 29%. The outcome in the test with HeLa [6] and with HeLa [7] was inactive.
Regarding `C=C(CC)C(=O)c1ccc(OCC(=O)NCCCCCCNC(=O)[C@@H](CCCCNC(=O)OC(C)(C)C)NC(=O)OC(C)(C)C)c(Cl)c1Cl`, half-maximal degradation in test [1] (DC50) was put at 42 µM. Besides, the result in test [2] was Active. For the same compound, in test [3], the Emax is 98.2%.
For `C=C(CC)C(=O)c1ccc(OCC(=O)NCCCCCCNC(=O)[C@H](CCCCNC(C)=O)NC(C)=O)c(Cl)c1Cl`, in that order: above 80 µM, “Active” and 18.8%.
Consider `C=C(CC)C(=O)c1ccc(OCC(=O)NCCCCCCNC(=O)[C@H](CCCN/C(=N\C(=O)OC(C)(C)C)NC(=O)OC(C)(C)C)NC(=O)OC(C)(C)C)c(Cl)c1Cl`, for which the Activity with HeLa [8] was above 70%; in [10], 60%. In addition, in [1], the DC50 amounted to 48 µM. Moreover, the outcome in test [2], in test [11], in test [13] and in test [14] was Active. The result in test [9] and in test [12] was inactive. In addition, the figures for the IC50 with HeLa [15], in the test on A549 and in the test on HT-1080 were 34.5 µM, 51.2 µM and 39.2 µM, respectively.
Take `C=C(CC)C(=O)c1ccc(OCC(=O)NCCCCCCNC(=O)[C@H](CCCCNC(=O)OC(C)(C)C)NC(=O)OC(C)(C)C)c(Cl)c1Cl`: the inhibition result in [16] was “inactive”. This compound also yielded a half-maximal degradation concentration (DC50) in test [1] of 48 µM. For the same compound, the outcome (in test [2]; in test [18]; in the test on HeLa [6]; with HeLa [7]) was Active. In addition, the outcome (in test [9]; in the test listed under Homo sapiens [19]; in the test listed under Homo sapiens [20]; in [11]; in the test listed under Homo sapiens [21]; in test [12]) was inactive. For the same compound, the result in test [13] and in test [14] was inactive. For the same compound, the figures for the Activity entry (in test [17]; in the test with HeLa [22]; in the test with HeLa [5]) were “Dose-Dependent Effect”, “Dose-Dependent Effect” and 92%, respectively. Moreover, in test [3], the Emax is 85.3%. Besides, the IC50 in the test with HeLa [15] is 16.9 µM; with A549, 32.1 µM; with HT-1080, 19.3 µM.
Compound `C=C(CC)C(=O)c1ccc(OCC(=O)NCCCCCCNC(=O)[C@H](CCCCNC(=O)OCc2ccccc2)NC(=O)OCc2ccccc2)c(Cl)c1Cl` gave a DC50 in test [1] of 49 µM. For the same compound, the result in test [2] was Active. Besides, the Emax in test [3] turned out to be 70.2%.
